According to US6274715A, “Tricyclic erythromycin derivatives” (priority 1997, dated 2001):
≈ marks a conversion by molar mass, not a printed value.

Columns and labels:
Type in all cases: cell-based
[1] = system: STAPHYLOCOCCUS AUREUS ATCC 6538P; assay: In vitro antibacterial activity, MIC, BHI agar dilution; conditions: S. aureus ATCC 6538P, 35-37° C., 20 to 24 hours, unit assumed
[2] = system: STAPHYLOCOCCUS AUREUS A5177; assay: as above; conditions: S. aureus A5177, unit assumed
[3] = system: STAPHYLOCOCCUS AUREUS A-5278; assay: as above; conditions: S. aureus A-5278, unit assumed
[4] = system: STAPHYLOCOCCUS AUREUS CMX 642A; assay: as above; conditions: S. aureus CMX 642A, unit assumed
[5] = system: STAPHYLOCOCCUS AUREUS NCTC10649M; assay: as above; conditions: S. aureus NCTC10649M, unit assumed
[6] = system: STAPHYLOCOCCUS AUREUS CMX 553; assay: as above; conditions: S. aureus CMX 553, unit assumed
[7] = system: STAPHYLOCOCCUS AUREUS 1775; assay: as above; conditions: S. aureus 1775, unit assumed
[8] = system: STAPHYLOCOCCUS EPIDERMIDIS 3519; conditions: S. epidermidis 3519; BHI agar; unit assumed
EN[…] ATCC 8043 = assay: In vitro antibacterial activity, MIC, BHI agar dilution; conditions: E. faecium ATCC 8043, unit assumed
How it was run: (§1)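 Agar dilution in BHI: plates inoculated with 1:100 dilutions of organisms (1:10 for Micrococcus and Streptococcus), incubated 20-24 h at 35-37° C, then inspected for the lowest inhibitory concentration against a drug-free growth control.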

M[…] ATCC 4698 = assay: as above; conditions: M. luteus ATCC 4698, unit assumed
How it was run: as §1

M[…] ATCC 9341 = assay: as above; conditions: M. luteus ATCC 9341, unit assumed
How it was run: as §1

STR[…] 508 = assay: as above; conditions: S. agalactiae CMX 508, unit assumed
How it was run: as §1

[9] = system: STREPTOCOCCUS BOVIS A-5169; assay: as above; conditions: S. bovis A-5169, unit assumed
[10] = system: STREPTOCOCCUS PYOGENES EES61; assay: as above; conditions: S. pyogenes EES61, unit assumed
[11] = system: STREPTOCOCCUS PYOGENES 930; assay: as above; conditions: S. pyogenes 930, unit assumed
[12] = system: STREPTOCOCCUS PYOGENES PIU 2548; assay: as above; conditions: S. pyogenes PIU 2548, unit assumed
ESCHERICHIA COLI JUHL = conditions: E. coli JUHL; BHI agar; unit assumed
ESCHERICHIA COLI SS = assay: In vitro antibacterial activity, MIC, BHI agar dilution; conditions: E. coli SS, unit assumed
ESCHERICHIA COLI DC-2 = assay: as above; conditions: E. coli DC-2, unit assumed
ESCHERICHIA COLI H560 = assay: as above; conditions: E. coli H560, unit assumed
ESCHERICHIA COLI KNK 437 = conditions: E. coli KNK 437; BHI agar; unit assumed
[13] = system: ENTEROBACTER AEROGENES ATCC 13048; assay: In vitro antibacterial activity, MIC, BHI agar dilution; conditions: E. aerogenes ATCC 13048, unit assumed
[14] = system: KLEBSIELLA PNEUMONIAE ATCC 8045; assay: as above; conditions: K. pneumoniae ATCC 8045, unit assumed
[15] = system: PROVIDENCIA STUARTII CMX 640; conditions: P. stuartii CMX 640; BHI agar; unit assumed
[16] = system: PSEUDOMONAS AERUGINOSA BMH10; assay: In vitro antibacterial activity, MIC, BHI agar dilution; conditions: P. aeruginosa BMH10, unit assumed
[17] = system: PSEUDOMONAS AERUGINOSA 5007; assay: as above; conditions: P. aeruginosa 5007, unit assumed
[18] = system: PSEUDOMONAS AERUGINOSA K799/WT; assay: as above; conditions: P. aeruginosa K799/WT, unit assumed
[19] = system: PSEUDOMONAS AERUGINOSA K799/61; assay: as above; conditions: P. aeruginosa K799/61, unit assumed
PSEUDOMONAS CEPACIA 296I = assay: as above; conditions: P. cepacia 296I, unit assumed
[20] = system: ACINETOBACTER CALCOACETICUS CMX 669; assay: as above; conditions: A. calcoaceticus CMX 669, unit assumed
[21] = system: PSEUDOMONAS AERUGINOSA DPHD-5263; assay: as above; conditions: P. aeruginosa DPHD-5263, unit assumed
[22] = system: PSEUDOMONAS AERUGINOSA DPHD-2862; assay: as above; conditions: P. aeruginosa DPHD-2862, unit assumed
CANDIDA ALBICANS CCH 442 = assay: as above; conditions: C. albicans CCH 442, unit assumed
[23] = system: MYCOBACTERIUM SMEGMATIS ATCC 114; assay: as above; conditions: M. smegmatis ATCC 114, unit assumed

For CC[C@H]1OC(=O)[C@H](C)C(=O)[C@H](C)[C@@H](O[C@@H]2O[C@H](C)C[C@H](N(C)C)[C@H]2O)[C@](C)(OC)C[C@@H](C)C2=N[C@H](CN(C)Cc3ccccc3)CN3C(=O)O[C@@]1(C)[C@H]3[C@H]2C [Example 58], the MIC [1] was 0.78 µg/mL (≈ 1.01 µM), the MIC [2] was 0.78 µg/mL (≈ 1.01 µM) and the MIC [3] was > 100 µg/mL. For the same compound, the MIC [4] was 0.78 µg/mL (≈ 1.01 µM), the MIC [5] was 0.78 µg/mL (≈ 1.01 µM) and the MIC [6] was 0.78 µg/mL (≈ 1.01 µM). The MIC [7] was > 100 µg/mL, the MIC [8] was 0.78 µg/mL (≈ 1.01 µM) and the MIC (EN[…] ATCC 8043) was 0.2 µg/mL (≈ 0.259 µM). The MIC (M[…] ATCC 4698) was 0.39 µg/mL (≈ 0.506 µM), the MIC (M[…] ATCC 9341) was 0.1 µg/mL (≈ 0.13 µM) and the MIC (STR[…] 508) was 0.02 µg/mL (≈ 0.0259 µM). For the same compound, the MIC [9] was 0.01 µg/mL (≈ 0.013 µM), the MIC [10] was 0.01 µg/mL (≈ 0.013 µM) and the MIC [11] was > 100 µg/mL. For the same compound, the MIC [12] was 0.39 µg/mL (≈ 0.506 µM), the MIC (ESCHERICHIA COLI JUHL) was > 100 µg/mL and the MIC (ESCHERICHIA COLI SS) was 0.39 µg/mL (≈ 0.506 µM). For the same compound, the MIC (ESCHERICHIA COLI DC-2) was > 100 µg/mL, the MIC (ESCHERICHIA COLI H560) was 50 µg/mL (≈ 64.9 µM) and the MIC (ESCHERICHIA COLI KNK 437) was > 100 µg/mL. The MIC [13] was > 100 µg/mL, the MIC [14] was > 100 µg/mL and the MIC [15] was > 100 µg/mL. The MIC [16] was > 100 µg/mL, the MIC [17] was > 100 µg/mL and the MIC [18] was > 100 µg/mL. For the same compound, the MIC [19] was 3.1 µg/mL (≈ 4.02 µM), the MIC (PSEUDOMONAS CEPACIA 296I) was > 100 µg/mL and the MIC [20] was > 100 µg/mL. For the same compound, the MIC [21] was > 100 µg/mL, the MIC [22] was > 100 µg/mL and the MIC (CANDIDA ALBICANS CCH 442) was > 100 µg/mL. The MIC [23] was 3.1 µg/mL (≈ 4.02 µM).

In the case of CC[C@H]1OC(=O)[C@H](C)C(=O)[C@H](C)[C@@H](O[C@@H]2O[C@H](C)C[C@H](N(C)C)[C@H]2O)[C@](C)(OC)C[C@@H](C)C2=NC[C@H](Cc3ccc(O)cc3)N3C(=O)O[C@@]1(C)[C@H]3[C@H]2C [Example 65], the MIC [1] is reported as 0.39 µg/mL (≈ 0.524 µM), the MIC [2] is reported as 0.39 µg/mL (≈ 0.524 µM) and the MIC [3] is reported as > 100 µg/mL. For the same compound, the MIC [4] was 0.39 µg/mL (≈ 0.524 µM), the MIC [5] was 0.39 µg/mL (≈ 0.524 µM) and the MIC [6] was 0.39 µg/mL (≈ 0.524 µM). The MIC [7] was > 100 µg/mL, the MIC [8] was 0.39 µg/mL (≈ 0.524 µM) and the MIC (EN[…] ATCC 8043) was 0.1 µg/mL (≈ 0.134 µM). For the same compound, the MIC (M[…] ATCC 4698) was 0.39 µg/mL (≈ 0.524 µM), the MIC (M[…] ATCC 9341) was 0.05 µg/mL (≈ 0.0672 µM) and the MIC (STR[…] 508) was 0.02 µg/mL (≈ 0.0269 µM). For the same compound, the MIC [9] was 0.01 µg/mL (≈ 0.0134 µM), the MIC [10] was 0.02 µg/mL (≈ 0.0269 µM) and the MIC [11] was > 100 µg/mL. It also gave an MIC [12] of 1.56 µg/mL (≈ 2.1 µM), an MIC (ESCHERICHIA COLI JUHL) of 50 µg/mL (≈ 67.2 µM) and an MIC (ESCHERICHIA COLI SS) of 0.39 µg/mL (≈ 0.524 µM). It also gave an MIC (ESCHERICHIA COLI DC-2) of 50 µg/mL (≈ 67.2 µM), an MIC (ESCHERICHIA COLI H560) of 50 µg/mL (≈ 67.2 µM) and an MIC (ESCHERICHIA COLI KNK 437) of 100 µg/mL (≈ 134 µM). For the same compound, the MIC [13] was > 100 µg/mL, the MIC [14] was > 100 µg/mL and the MIC [15] was > 100 µg/mL. For the same compound, the MIC [16] was > 100 µg/mL, the MIC [17] was > 100 µg/mL and the MIC [18] was > 100 µg/mL. The MIC [19] was 0.78 µg/mL (≈ 1.05 µM), the MIC (PSEUDOMONAS CEPACIA 296I) was 100 µg/mL (≈ 134 µM) and the MIC [20] was 100 µg/mL (≈ 134 µM). The MIC [21] was > 100 µg/mL, the MIC [22] was > 100 µg/mL and the MIC (CANDIDA ALBICANS CCH 442) was > 100 µg/mL. For the same compound, the MIC [23] was 6.2 µg/mL (≈ 8.33 µM).
